What was measured:
[1] = system: Human LDLs; experiment: Oxidation of human LDL by cupric ions (fluorescence), antioxidant effect; format: biochemical
Procedure: Human LDLs placed in aqueous solution in the presence of cupric ions, become spontaneously oxidised on their protein component, apolipoprotein-B. This oxidation makes the particle fluorescent, which is exploited to measure a pharmacological effect.
The reactions and measurements are carried out in black 96-well plates. 10 μl of a solution of the test product dissolved in dimethyl sulfoxide are first mixed with 170 μl of a solution of human LDL at a concentration of 120 μg/ml and 20 μl of 100 μM CuCl2. After stirring, the mixture is incubated for 2 hours at 37° C., and a first fluorescence reading is taken (excitation at 360 nm, reading at 460 nm). The mixture is then incubated for a further 22 hours, to take a second reading under the same conditions. The difference is proportionately smaller the greater the antioxidant power of the test product. Probucol is used as reference product at a concentration of 10 μM.
The concentrations that inhibit 50% (IC50) of the oxidation are prepared from three concentrations of the test product. They are given in Table B below for some of the compounds of the formula I given as examples below.

[2] = Spontaneous release of nitric oxide, titrated as nitrites+nitrates (Griess reagent, nitrate reductase); settings: nitrites+nitrates released; test product 150 μM, 4 hours at 37° C., pH 7.5 PBS buffer; compounds of formula I
Procedure: A solution of a compound of the formula I of the invention spontaneously releases nitric oxide. The nitrite ions resulting therefrom are titrated by colorimetry by means of a specific reagent (Griess). To take account of any release of nitrate ions in addition to the nitrites, bacterial nitrate reductase is added to the reaction medium to reduce the nitrate ions formed.
The reactions and measurements are carried out in transparent 96-well plates. The test products are dissolved at the time of use, at a concentration of 3 mM in dimethyl sulfoxide. 95 μl of a reagent containing nitrate reductase (0.18 U/ml in 100 mM pH 7.5 PBS buffer, 210 μM β-NADPH, 5 μM FAD) and 5 μl of the solution of the test product (final concentration of 150 μM) are then added to each well. After stirring, the mixtures are incubated for 4 hours at 37° C. The reaction is then stopped by adding 100 μl of Griess' reagent (Sigma G4410). The resulting mixture is stirred for 5 min at room temperature, and the optical density is then read at 540 nm. This value is proportional to the concentration of nitrites+nitrates in the medium. A calibration range is made for each plate, using NaNO2.
The results are expressed as μmol/l (μM) of nitrites+nitrates released in Table A for some of the compounds of the formula I given as examples below.

[3] = oxidation of human lipoproteins, compounds of formula II (Table C)
[4] = human LDL + CuCl2, fluorescence 2 h vs 24 h at 37° C., compounds of formula I (Table B)

| Compound | IC50 [1, 3] | IC50 [1, 4] | Nitrites-Nitrates [2] | melting point |
| --- | --- | --- | --- | --- |
| COc1ccc(Nc2ccc(C(=O)Nc3cccc([N+](=O)[O-])c3)cc2)cc1 [Example 8a] | 10 µM |  |  |  |
| COc1ccc(N(N=O)c2ccc(C(=O)NCCN3CCN(C)CC3)cc2)cc1 [Example 6b, 4-[1-(4-Methoxyphenyl)-2-oxohydrazino]-N-[2-(4-methylpiperazin-1-yl)-ethyl]benzamide] |  |  | 58 µM |  |
| COc1ccc(Nc2ccc(S(=O)(=O)Nc3cccnc3)cc2)cc1 [Example 136a] | 19.8 µM |  |  |  |
| COc1ccc(Nc2cccc(C(=O)Nc3ccccn3)c2)cc1 [Example 134a] | 4.5 µM |  |  |  |
| COc1ccc(N(N=O)c2ccc(C(=O)Nc3cccnc3)cc2)cc1 [Example 1b, 4-[1-(4-Methoxyphenyl)-2-oxohydrazino]-N-pyrid-3-ylbenzamide] |  | 4.6 µM | 63 µM | 167 to 169 °C |
| COc1ccc(Nc2ccc(C(=O)Nc3ccccc3)cc2)cc1 [Example 33a] | 12.9 µM |  |  |  |

Further lines, with some results ahead:

| IC50 [1, 3] | IC50 [1, 4] | Nitrites-Nitrates [2] | Compound | melting point |
| --- | --- | --- | --- | --- |
| 9.1 µM |  |  | COc1ccc(Nc2cccc(C(=O)Nc3cccnc3)c2)cc1 [Example 4a, 3-[(4-Methoxyphenyl)amino]-N-pyrid-3-ylbenzamide] |  |
|  | 12.7 µM | 70 µM | COc1ccc(N(N=O)c2cccc(C(=O)Nc3cccnc3)c2)cc1 [Example 4b, 3-[1-(4-Methoxyphenyl)-2-oxohydrazino]-N-pyrid-3-ylbenzamide] |  |
|  | 9.3 µM | 82 µM | COc1ccc(N(N=O)c2cccc(C(=O)NCc3cccnc3)c2)cc1 [Example 132b] |  |
|  | 4.8 µM | 82 µM | COc1ccc(N(N=O)c2ccc(C(=O)Nc3ccncc3)cc2)cc1 [Example 15b] |  |
|  |  | 90 µM | COc1ccc(N(N=O)c2ccc(C(=O)Nc3ccccn3)cc2)cc1 [Example 14b, 4-[1-(4-methoxyphenyl)-2-oxohydrazino]-N-pyrid-2-ylbenzamide] |  |
|  |  | 47 µM | O=NN(c1ccc(C(=O)Nc2cccnc2)cc1)c1ccc([N+](=O)[O-])cc1 [Example 5b, 4-[1-(4-Nitrophenyl)-2-oxohydrazino]-N-pyrid-3-ylbenzamide] |  |
|  | 8.6 µM | 75 µM | COc1ccc(N(N=O)c2cccc(C(=O)Nc3ccncc3)c2)cc1 [Example 135b] |  |
| 7.5 µM |  |  | COc1ccc(Nc2cccc(C(=O)Nc3ccncc3)c2)cc1 [Example 135a] |  |
| 7.7 µM |  |  | COc1ccc(Nc2cccc(C(=O)NCc3cccnc3)c2)cc1 [Example 132a] |  |

Source: US20050154232A1, “Nitrosodiphenylamine derivatives and their pharmaceutical use against oxidative stress pathologies” (priority 2002, published 2005)
